Assays:
children with HGPS = children with HGPS treated with lonafarnib in clinical trials; cited from earlier work
plasma progerin = assay: Plasma progerin (SMC Progerin Immunoassay) in HGPS clinical trial patients on therapy; format: in vivo, human
From the text: An SMC ultrasensitive immunoassay for the detection of plasma progerin was developed. Overall, the assay employed a sandwich immunoassay format with an anti-lamin A capture antibody coated on magnetic microparticles, and an anti-progerin specific detection antibody conjugated to a fluorescent tag (FIG. 1) run in a 96-well plate. Progerin-bound detection antibody was eluted and read as single molecules using a confocal laser.
The SMC assay for measuring Progerin was as previously described (Todd et al.), except that magnetic microparticles (MP) coated with capture antibodies and detection reagents were specific to the progerin assay (FIG. 1). […] Progerin-bound detection antibody was then eluted by pH shift using a proprietary glycine buffer, transferred to a new plate and detected by SMC using the Erenna Immunoassay System software (SgxLink™). The raw signal data and the interpolated value data obtained from SgxLink were transferred to Excel where precision was then calculated for the replicate wells. […]
For analysis, samples were fully thawed at RT for <5 min, lightly mixed, diluted in standard diluent before transferring into filter plate wells (MilliporeSigma MSBVN1210). […] Filtrate was then assessed as described. […]

NC(=O)N1CCC(CC(=O)N2CCC([C@H]3c4ncc(Br)cc4CCc4cc(Cl)cc(Br)c43)CC2)CC1 [lonafarnib]
increased survival, estimated, on average (children with HGPS): 2.5 years | average progerin, lonafarnib monotherapy extension visits versus consecutive Triple Therapy visits (plasma progerin; 10 patients, extension of additional 4.1±0.5 years, p=0.99): no significant differences | progerin at 150 mg/m^2 versus the 115 mg/m^2 dose (plasma progerin; ProLon1, each of the 4 trial visits after the 8-month visit, N=22-25, all p<0.05): significantly decreased

From patent US20250060373A1, “NOVEL ASSAY AND NOVEL METHODS OF TREATING HUTCHINSON-GILFORD PROGERIA SYNDROME” (The Progeria Research Foundation, priority 2021, published 2025)
